System: imDAPs
Assay: Flow cytometry (FACS) analysis of FOXA2 expression in expanded imDAPs
Assay type: cell-based, human
Procedure: • 1. Individualize and collect cells by either Accutase or TrypLE treatment. • 2. Wash cells with 1 ml PBS and pellet cells at 250×g for 15 sec. • 3. Remove supernatant, add ˜200 μl of 4% PFA, mix and fix for 10 min at RT. • 4. Pellet cells at 350×g for 5 min. • 5. Wash cells by 1 ml of FACS buffer and pellet cells at 350×g for 5 min. • 6. Remove supernatant, add 200 μl/tube of FACS buffer/0.1% TritonX, mix for 10 min at RT. • 7. Wash cells by 1 ml of FACS buffer and pellet cells at 350×g for 5 min. • 8. Remove supernatant, add 200 μl/tube of primary antibody diluted in FACS buffer, mix gently, and incubate for 30 min at RT. • 9. Wash cells by 1 ml of FACS buffer and pellet cells at 350×g for 5 min. • 10. Remove supernatant, and add 200 μl of secondary antibody diluted in FACS buffer, mix gently, and incubate for 30 min at RT. • 11. Wash cells by 1 ml of FACS buffer and pellet cells at 300×g for 5 min. • 12. Remove supernatant, add 200 μl of FACS buffer, and run samples on the flow cytometry. (2) qRT-PCR • 1. For qRT-PCR analysis of mRNA gene expression, RNA should be harvested from at least 2×10^6 cells. • 2. Harvest cells, add 350 μl of buffer RLT+1% (vol/vol) s-mercaptoethanol to the well, transfer the lysate to a 1.5 ml tube, and put it immediately on ice. • 3. Perform RNA extraction using the Tiangen Kit (DP430), and follow the manufacturer's protocol ‘Purification of total RNA from animal and human cells’. • 4. When the RNA extraction was completed, determine the RNA concentration using a Nanodrop instrument. • 5. Perform the first-strand cDNA synthesis reaction with 1 μg of RNA using the HiScript TM II Q RT SuperMIX for qPCR(+gDNA wiper) Kit (Vazyme, #R223-01) for RT-qPCR. Follow the manufacturer's ‘First-Strand cDNA Synthesis’ protocol. This reaction would yield a 20 μl product. • 6. Dilute the 10 μl cDNA product in 80 μl of nuclease-free water. • 7. Pipette the diluted cDNA product (1 μl), Sybr green master mix (5 μl, Transgen, #AQ131) and 0.95 μM reverse/forward primer mix (4 μl) into a 384-well PCR plate in triplicate, either manually or using an automated pipetting robot. The complete primer panel included the target genes and the housekeeping gene (RPL13A). In the analysis, also included a sample of undifferentiated hPSCs to determine the gene expression levels relative to the expression in hPSCs. • 8. Analyze the samples by running a quantitative PCR on the LightCycler 480 instrument using a 40× cycle two-step protocol with a 60° C., 60 sec annealing/elongation step and a 95° C., 30 sec denaturation step. The average CT values from the three technical replicates were used for calculations of relative gene expression using the ΔΔCT method. For each gene, calculate the FC of the differentiated samples relative to the undifferentiated control sample using the housekeeping gene for normalization. Next, calculate the average of the FC values on the basis of the housekeeping gene. (3) Immunocytochemical Analysis • 1. Cell fixation: Remove the medium from the cells and wash with PBS. Add 4% (wt/vol) PFA (e.g., 200 μl to a well in a 48-well plate) and incubate at room temperature (RT) for 15 min. after incubation, wash the cells three times in PBS. • 2. Blocking: Remove PBS from the wells and add blocking solution to the cells, add enough volume to cover the cells. Leave the cells in blocking solution for 1 h at RT. • 3. Primary antibodies incubation: Remove the blocking solution from the cells and add the primary antibody solutions (˜100 μl/cm^2). […]

Compound	expression of Foxa2 (percentage of Foxa2+ imDAPs) (Example 9, P1 cells compared with P0 cells, DLL4/VTN-coated, FIG. 5C)	FOXA2 expression (percentage of Foxa2+ imDAPs) (Example 8, VTN or DLL4/VTN coating, with or without SB431542, FIG. 4C)
c1ccc2c(-c3cnn4cc(-c5ccc(N6CCNCC6)cc5)cnc34)ccnc2c1 [LDN193189]	slightly decreased the expression of FOXA2 for imDAPs	–
DLL4: Notch agonist used as second coating matrix	–	could improve FOXA2 expression

From patent US12391919B2, “Culture medium, coating matrix and method for maturing midbrain dopaminergic progenitor cells” (NUWACELL BIOTECHNOLOGIES CO., LTD., priority 2022, dated 2025)
